In US11178870B2 (priority 2017, dated 2021):
Read-outs that look alike come from different tables or passages of the source.

What was measured:
Magnaporthe grisea = test: whole plant or invertebrate; assay type: in vivo; conditions: Pyricularia oryzae, in Oryza sativa
Botrytis cinerea = test: Test Example B: Gray mold on tomato; assay type: in vivo
Alternaia brassicicola = test: Test Example C: Alternaria sooty spot on cabbage; assay type: in vivo; conditions: Brassica oleracea
[1] = tested on: Blumeria graminis f. sp. hordei; test: Test Example D: Powdery mildew on barley; assay type: in vivo
Puccinia recondita = test: Test Example E: Brown rust on wheat; assay type: in vivo
Phytophthora infestans = test: whole plant or invertebrate; assay type: in vivo; conditions: in Solanum lycopersicum
Plasmopara viticola = test: Test Example G: Downy mildew on vine; assay type: in vivo
[2] = tested on: Colletotrichum orbiculare; test: whole plant or invertebrate; conditions: in Cucumis sativus, read-out: control value, Test H (anthracnose on cucumber)
Method: Seeds of a test plant (cucumber variety: Sagami Hanjiro) were planted and cultivated until the first leaf appeared. In the test, the compounds of the present invention were dissolved into a dimethyl sulfoxide-methanol mixture solution (volume ratio: 9/1), and the resultant solutions were diluted with well water to a concentration of 250 ppm. The thus-obtained dilutions were sprayed to the test plant (2.5 ml/pot). After the dilutions dried, a conidial suspension (2-4×10^5 conidia/ml) of Colletotrichum orbiculare was inoculated to the plant by spraying. After the inoculation, the plant was kept in a mist chamber at room temperature of 20 to 23° C. for about 24 hours to promote the onset of disease. The disease development was investigated 6 to 10 days after the inoculation, and the effectiveness of the dilutions was evaluated.
Disease development in Test Example described above was evaluated in increments of 0.05 by setting 0 as no incidence of disease and 3 as disease development in a plant of untreated group. In addition, control values were calculated using the following equation based on disease development.
Control value=100 {1−(n/3)}
n=Disease development of each treated groups

[3] = Gray mold on tomato, read-out: Test B control value
[4] = Alternaria sooty spot on cabbage, read-out: Test C control value
[5] = Powdery mildew on barley, read-out: Test D control value
[6] = Brown rust on wheat, read-out: Test E control value
[7] = Downy mildew on vine, 250 ppm sprayed, 2.5 ml/pot, 7 to 10 days after inoculation, read-out: Test G control value
[8] = read-out: control value, Test A (blast on rice)
[9] = Table 7, Test B, read-out: control value, Test B (gray mold on tomato)
[10] = Table 7, Test C, read-out: control value, Test C (Alternaria sooty spot on cabbage)
[11] = Table 7, Test D, read-out: control value, Test D (powdery mildew on barley)
[12] = Table 7, Test E, read-out: control value, Test E (brown rust on wheat)
[13] = read-out: control value, Test F (late blight on tomato)
[14] = 250 ppm sprayed (2.5 ml/pot) before inoculation, assessed 7 to 10 days after inoculation, read-out: control value, Test G (downy mildew on vine)

Compound	pest or weed control at 250 µg/mL (Magnaporthe grisea; read-out: Test A control value)	pest or weed control at 250 µg/mL (Botrytis cinerea; [3])	pest or weed control at 250 µg/mL (Alternaia brassicicola; [4])	pest or weed control at 250 µg/mL [1, 5]	pest or weed control at 250 µg/mL (Puccinia recondita; [6])	pest or weed control at 250 µg/mL (Phytophthora infestans; read-out: Test F control value)	pest or weed control at 250 ppm (Plasmopara viticola; [7])	pest or weed control at 250 µg/mL (Magnaporthe grisea; [8])	pest or weed control at 250 µg/mL (Botrytis cinerea; [9])	pest or weed control at 250 µg/mL (Alternaia brassicicola; [10])	pest or weed control at 250 µg/mL [1, 11]	pest or weed control at 250 µg/mL (Puccinia recondita; [12])	pest or weed control at 250 µg/mL (Phytophthora infestans; [13])	pest or weed control at 250 ppm (Plasmopara viticola; [14])	pest or weed control at 250 ppm [2]	pest or weed control at 250 µg/mL (Botrytis cinerea; in Solanum lycopersicum, Table 7, Test B, read-out: control value, Test B (gray mold on tomato))	pest or weed control at 250 µg/mL ([1]; in Hordeum vulgare, Table 7, Test D, read-out: control value, Test D (powdery mildew on barley))	pest or weed control at 250 µg/mL (Puccinia recondita; in Triticum aestivum, Table 7, Test E, read-out: control value, Test E (brown rust on wheat))
CCn1c(-c2c(F)cc(F)cc2F)c(-n2cc(Cl)cn2)cc(Br)c1=O [compound 71, 5-(4-chloro-1H-pyrazol-1-yl)-1-ethyl-3-bromo-6-(2,4,6-trifluoro-phenyl)pyridin-2(1H)-one]	> 50%	> 50%	> 50%	> 50%	> 50%	< 50%	< 50%	–	–	–	–	–	–	–	–	–	–	–
CCn1c(-c2c(F)cc(OC)cc2F)c(-n2cc(Br)cn2)cc(Cl)c1=O [compound 72, 5-(4-bromo-1H-pyrazol-1-yl)-3-chloro-6-(2,6-difluoro-4-methoxyphenyl)-1-ethylpyridin-2(1H)-one]	> 50%	> 50%	> 50%	> 50%	> 50%	< 50%	< 50%	–	–	–	–	–	–	–	–	–	–	–
CCn1c(-c2c(F)cccc2F)c(-c2c[nH]cc2C#N)cc(Cl)c1=O [compound 88, 4-(5-chloro-1-ethyl-6-oxo-2-(2,6-difluorophenyl)-1,6-dihydro-pyridin-3-yl)-1H-pyrrol-3-carbonitrile]	< 50%	< 50%	> 50%	< 50%	< 50%	< 50%	< 50%	–	–	–	–	–	–	–	–	–	–	–
CCn1c(-c2c(F)cc(F)cc2F)c(-c2ocnc2Cl)cc(Cl)c1=O [compound 112, 3-chloro-5-(4-chlorooxazol-5-yl)-1-ethyl-6-(2,4,6-trifluoro-phenyl)pyridin-2(1H)-one]	> 50%	> 50%	> 50%	> 50%	> 50%	< 50%	> 50%	–	–	–	–	–	–	–	–	–	–	–
CCn1c(-c2c(F)cc(F)cc2F)c(-n2cnc(Cl)c2Cl)ccc1=O [compound 136, 5-(4,5-dichloro-1H-imidazol-1-yl)-1-ethyl-6-(2,4,6-trifluorophenyl)pyridin-2(1H)-one]	> 50%	> 50%	> 50%	> 50%	> 50%	< 50%	> 50%	–	–	–	–	–	–	–	–	–	–	–
CCn1c(-c2c(F)cc(F)cc2F)c(-n2cnc(Cl)c2Cl)cc(Cl)c1=O [compound 138, 3-chloro-5-(4,5-dichloro-1H-imidazol-1-yl)-1-ethyl-6-(2,4,6-trifluorophenyl)pyridin-2(1H)-one]	> 50%	> 50%	> 50%	> 50%	> 50%	< 50%	< 50%	–	–	–	–	–	–	–	–	–	–	–
CCn1c(-c2c(F)cc(F)cc2F)c(-n2cc(Cl)cn2)cc(I)c1=O [compound 140, 5-(4-chloro-1H-pyrazol-1-yl)-1-ethyl-3-iodo-6-(2,4,6-trifluoro-phenyl)pyridin-2(1H)-one]	< 50%	> 50%	> 50%	> 50%	> 50%	< 50%	< 50%	–	–	–	–	–	–	–	–	–	–	–
CCn1c(-c2c(F)cc(O)cc2F)c(-n2cc(Cl)cn2)cc(Cl)c1=O [compound 184, 3-chloro-5-(4-chloro-1H-pyrazol-1-yl)-6-(2,6-difluoro-4-hydroxyphenyl)-1-ethylpyridin-2(1H)-one]	–	–	–	–	–	–	–	< 50%	> 50%	> 50%	< 50%	> 50%	< 50%	> 50%	> 50%	–	–	–
C#CCOc1cc(F)c(-c2c(-n3cc(Cl)cn3)cc(Cl)c(=O)n2CC)c(F)c1 [compound 201, 3-chloro-5-(4-chloro-1H-pyrazol-1-yl)-6-(2,6-difluoro-4-(propargyloxy)phenyl)-1-ethyl pyridin-2(1H)-one]	–	–	–	–	–	–	–	> 50%	> 50%	> 50%	> 50%	> 50%	< 50%	< 50%	> 50%	–	–	–
C=CCOc1cc(F)c(-c2c(-n3cc(Cl)cn3)cc(Cl)c(=O)n2CC)c(F)c1 [compound 202, 6-(4-(allyloxy)-2,6-difluorophenyl)-3-chloro-5-(4-chloro-1H-pyrazol-1-yl)-1-ethylpyridin-2(1H)-one]	–	–	–	–	–	–	–	> 50%	> 50%	> 50%	> 50%	> 50%	< 50%	< 50%	> 50%	–	–	–
CCn1c(-c2c(F)cc(OCCOC)cc2F)c(-n2cc(Cl)cn2)cc(Cl)c1=O [compound 204, 3-chloro-5-(4-chloro-1H-pyrazol-1-yl)-6-(2,6-difluoro-4-(2-methoxyethoxy)phenyl)-1-ethylpyridin-2(1H)-one]	–	–	–	–	–	–	–	< 50%	> 50%	> 50%	< 50%	< 50%	< 50%	< 50%	> 50%	–	–	–
CCn1c(-c2c(F)cc(OC(C)=O)cc2F)c(-n2cc(Cl)cn2)cc(Cl)c1=O [compound 205]	–	–	–	–	–	–	–	< 50%	–	> 50%	–	–	< 50%	< 50%	< 50%	> 50%	< 50%	> 50%
CCn1c(-c2c(F)cc(F)cc2F)c(-n2cc(Cl)cn2)cc(C)c1=O [compound 206, 5-(4-chloro-1H-pyrazol-1-yl)-1-ethyl-3-methyl-6-(2,4,6-trifluoro-phenyl)pyridin-2(1H)-one]	–	–	–	–	–	–	–	> 50%	> 50%	> 50%	> 50%	> 50%	< 50%	< 50%	> 50%	–	–	–
C#Cc1cc(-n2cc(Cl)cn2)c(-c2c(F)cc(F)cc2F)n(CC)c1=O [compound 223, 5-(4-chloro-1H-pyrazol-1-yl)-1-ethyl-3-ethynyl-6-(2,4,6-trifluorophenyl)pyridin-2(1H)-one]	–	–	–	–	–	–	–	> 50%	< 50%	> 50%	< 50%	< 50%	< 50%	> 50%	< 50%	–	–	–
CCn1c(-c2c(F)cc(F)cc2F)c(-n2cc(Cl)cn2)cc(OC)c1=O [compound 225, 5-(4-chloro-1H-pyrazol-1-yl)-1-ethyl-3-methoxy-6-(2,4,6-trifluorophenyl)pyridin-2(1H)-one]	–	–	–	–	–	–	–	< 50%	< 50%	> 50%	> 50%	> 50%	< 50%	> 50%	< 50%	–	–	–
CCn1c(-c2ccc(F)cc2F)c(-n2cc(C)cn2)cc(Br)c1=O [compound 226, 3-bromo-6-(2,4-difluorophenyl)-1-ethyl-5-(4-methyl-1H-pyrazol-1-yl)pyridin-2(1H)-one]	–	–	–	–	–	–	–	> 50%	> 50%	> 50%	> 50%	> 50%	< 50%	> 50%	> 50%	–	–	–
CCn1c(-c2ccc(F)cc2F)c(-n2ncc(C)c2Cl)cc(Br)c1=O [compound 228, 3-bromo-5-(5-chloro-4-methyl-1H-pyrazol-1-yl)-6-(2,4-difluoro-phenyl)-1-ethylpyridin-2(1H)-one]	–	–	–	–	–	–	–	> 50%	> 50%	> 50%	> 50%	> 50%	< 50%	< 50%	> 50%	–	–	–
